Data set [1] deals with TPC-1 cells. The data set can be described thus: Cell cycle distribution. The format is cell-based. The following applies: 48-h treatment.
Data set [2] deals with thyroid cancer cells TPC-1. Description: Transwell migration assay. The note with it: TPC-1 cells, 48 h. In kind it is cell-based. On the procedure: A 24-well plate is filled with 500 μL of RPMI-1640 medium containing 20% serum per well, and Transwell chambers are placed in the wells. TCP-1 cells are resuspended in serum-free medium and mixed with compound 14f, then added to the upper chamber of the Transwell chambers. The 24-well plates are incubated at 37 °C with 5% CO2 for 48 h. After incubation, the plates are removed, and the chambers are immersed in 4% paraformaldehyde and fixed at room temperature for 10 min. Following fixation, 0.1% crystal violet staining solution is added to the 24-well plates, and the chambers are stained at room temperature for 30 min. After staining, the plates are washed, the upper layer of cells is gently wiped off with a cotton swab, and the chambers are air-dried. Images are captured using a microscope.

The test system of data set [3] is thyroid cancer cells TPC-1. The data set can be described thus: MTT antiproliferative assay. The format is cell-based. On the procedure: Thyroid cancer cells TCP-1 were provided by Wuhan Servicebio Co., Ltd. TCP-1 cells are cultured in RPMI-1640 medium supplemented with 10% foetal bovine serum (FBS), 100 U/mL penicillin, and 0.1 mg/mL streptomycin. All cells are maintained in a humidified incubator at 37 °C with 5% CO2.
The TCP-1 cell line is seeded into a 96-well plate and incubated under conditions of 37 °C and 5% CO2. After the cells adhere, different concentrations of compounds are added and the incubation continues for 48 h under the same conditions. Subsequently, MTT reagent is added to the medium and the incubation is continued for an additional 4 h at 37 °C. After the incubation, the medium is aspirated, and 150 μL of DMSO solution is added to dissolve the purple-blue crystals by shaking. The absorbance of the solution is measured at a wavelength of 490 nm. The IC50 value of the compounds is calculated using SPSS software version 20.0.

Data set [4] concerns the target T1, FAK (Homo sapiens, UniProt Q05397). The data set can be described thus: Western blot of FAK and its phosphorylation sites in TPC-1 cells. The format is cell-based. The following applies: TPC-1 cells, 50, 100 and 200 nmol/L, 48 h. As for the experimental part: Different concentrations of compound 14f are applied to TCP-1 cells for 48 h, after which the cells are collected and lysed in RIPA lysis buffer (Solarbio, R0010). Protein concentration is determined using the BCA Protein Concentration Assay Kit (Solarbio, PC0020). Proteins were denatured using 4X SDS-PAGE loading buffer (Solarbio, P1016) at 100 °C for 10 min. The denatured protein samples are separated by SDS-PAGE electrophoresis. Proteins are transferred from the gel to nitrocellulose (NC) membrane (Pall Corporation, P/N 66485) and blocked with 5% non-fat milk for 1 h at room temperature. After washing with TBST, the primary antibody is added and incubated overnight at 4 °C. The membrane is washed with TBST and then incubated with the secondary antibody at room temperature for 1–2 h. The membrane is washed again with TBST, and the protein bands are visualised using an ECL (Solarbio, PE0010) ultra-sensitive luminescent reagent, followed by imaging with a chemiluminescence imaging analyser (Cytiva, […] ImageQuant 800, JPN). The ladder used for Western Blot experiments was purchased from Thermo Scientific (Thermo Scientific, catalog number:26616). […]

Data set [5] has as its system TPC-1 cells. The data set can be described thus: Colony formation assay. In kind it is cell-based. The following applies: 5-day treatment. As for the experimental part: TCP-1 cells are plated at a density of 10,000 to 20,000 cells per well in a 6-well plate. After cell adhesion, the cells are treated with different concentrations of compound 14f and cultured for 5 days in an incubator. At the end of the culture period, the medium is aspirated, and the cells are washed three times with PBS. The cells are then fixed with 4% paraformaldehyde for 20 min at room temperature. After fixation, the fixative is removed, and the cells are stained with 0.1% crystal violet at room temperature for 20 min. Following staining, the cells are rinsed with PBS until the purple colour is completely washed away, and then air-dried for image acquisition.

Data set [6] has as its target T1, FAK. The data set can be described thus: Kinase inhibition assay (Kinase-Glo Plus). The format is biochemical. The following applies: 10 µM ATP. An excerpt:
It measures kinase activity by quantitating the amount of ATP remaining in solution following a kinase reaction. The luminescent signal from the assay is correlated with the amount of ATP present and is inversely correlated with the amount of kinase activity.

For the next data set, the target named is ALK (Homo sapiens, UniProt Q9UM73). The data set can be described thus: Kinase inhibition assay (Kinase-Glo Plus). The format is biochemical. The following applies: Figure 3A; 10 µM ATP; read-out: IC50 (nmol/L) ALK. As for the experimental part: (§1) The 50 µl reaction mixture contains 40 mM Tris, pH 7.4, 10 mM MgCl2, 0.1 mg/ml BSA, 1 mM DTT, 10 µM ATP, Kinase and the enzyme substrate. The compound was diluted in 10% DMSO and 5 µl of the dilution was added to a 50 µl reaction so that the final concentration of DMSO is 1% in all of the reactions. The assay was performed using a Kinase-Glo Plus luminescence kinase assay kit. It measures kinase activity by quantitating the amount of ATP remaining in solution following a kinase reaction. The luminescent signal from the assay is correlated with the amount of ATP present and is inversely correlated with the amount of kinase activity. The IC50 values were calculated using nonlinear regression with normalised dose-response fit using Prism GraphPad software.
Sequence of ALK (Q9UM73 19-1620, species assumed): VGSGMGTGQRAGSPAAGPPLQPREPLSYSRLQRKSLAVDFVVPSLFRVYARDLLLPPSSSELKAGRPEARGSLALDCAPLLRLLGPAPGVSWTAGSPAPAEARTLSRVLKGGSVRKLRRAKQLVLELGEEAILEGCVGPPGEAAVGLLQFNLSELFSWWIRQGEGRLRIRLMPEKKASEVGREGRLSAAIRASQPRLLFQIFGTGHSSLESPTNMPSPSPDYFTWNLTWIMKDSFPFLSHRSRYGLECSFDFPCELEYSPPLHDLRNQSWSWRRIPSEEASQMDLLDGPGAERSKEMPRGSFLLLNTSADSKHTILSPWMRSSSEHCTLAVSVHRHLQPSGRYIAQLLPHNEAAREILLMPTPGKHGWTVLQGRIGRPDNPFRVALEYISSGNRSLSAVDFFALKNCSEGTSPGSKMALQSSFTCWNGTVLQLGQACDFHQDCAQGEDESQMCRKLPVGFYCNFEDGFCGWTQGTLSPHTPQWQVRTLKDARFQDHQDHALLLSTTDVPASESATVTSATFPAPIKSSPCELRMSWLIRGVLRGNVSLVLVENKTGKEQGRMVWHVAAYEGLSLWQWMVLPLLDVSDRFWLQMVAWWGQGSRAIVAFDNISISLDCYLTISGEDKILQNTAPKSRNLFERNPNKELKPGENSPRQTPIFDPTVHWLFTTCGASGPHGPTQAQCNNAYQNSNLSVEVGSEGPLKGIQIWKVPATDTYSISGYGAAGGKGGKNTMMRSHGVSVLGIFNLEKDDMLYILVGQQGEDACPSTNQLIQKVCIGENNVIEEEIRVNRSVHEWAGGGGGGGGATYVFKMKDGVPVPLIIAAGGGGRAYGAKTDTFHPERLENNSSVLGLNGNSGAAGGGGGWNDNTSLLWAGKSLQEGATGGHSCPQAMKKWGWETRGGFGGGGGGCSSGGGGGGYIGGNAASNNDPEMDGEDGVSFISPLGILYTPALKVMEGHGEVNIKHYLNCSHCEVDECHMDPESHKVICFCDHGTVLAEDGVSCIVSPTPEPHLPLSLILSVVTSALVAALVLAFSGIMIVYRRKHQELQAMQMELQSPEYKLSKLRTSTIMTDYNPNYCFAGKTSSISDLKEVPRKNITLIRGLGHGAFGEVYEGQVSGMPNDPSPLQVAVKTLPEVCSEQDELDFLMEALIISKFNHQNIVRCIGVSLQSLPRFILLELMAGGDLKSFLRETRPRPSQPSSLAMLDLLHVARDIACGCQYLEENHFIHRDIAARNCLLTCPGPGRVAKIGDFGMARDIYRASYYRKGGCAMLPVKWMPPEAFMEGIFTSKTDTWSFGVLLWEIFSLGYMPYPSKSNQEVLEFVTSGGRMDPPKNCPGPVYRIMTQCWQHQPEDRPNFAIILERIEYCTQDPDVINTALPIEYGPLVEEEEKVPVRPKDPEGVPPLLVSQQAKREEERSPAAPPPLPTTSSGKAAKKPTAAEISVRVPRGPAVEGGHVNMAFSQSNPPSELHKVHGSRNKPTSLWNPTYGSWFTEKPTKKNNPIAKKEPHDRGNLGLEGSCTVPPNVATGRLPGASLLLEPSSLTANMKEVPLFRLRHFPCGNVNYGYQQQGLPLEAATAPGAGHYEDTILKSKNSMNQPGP

In another data set the target is EGFR (Homo sapiens, UniProt P00533). The data set can be described thus: Kinase inhibition assay (Kinase-Glo Plus). The format is biochemical. The note with it: Figure 3A; 10 µM ATP; read-out: IC50 (nmol/L) EGFR. As for the experimental part:
as §1

The next data set addresses ROS1 (Homo sapiens, UniProt P08922). Description: Kinase inhibition assay (Kinase-Glo Plus). In kind it is biochemical. The following applies: Figure 3A; 10 µM ATP; read-out: IC50 (nmol/L) ROS1. As for the experimental part: as §1
In data set [7] the test system is thyroid cancer cells TPC-1. The data set can be described thus: EdU staining assay. The format is cell-based. The following applies: TPC-1 cells, 48 h. On the procedure:
TCP-1 cells are treated with compound 14f, followed by the addition of an equal volume of 1X EdU working solution to the drug-containing medium, and incubated under conditions of 37 °C and 5% CO2 for 4 h. After incubation, the cells are fixed with 4% paraformaldehyde for 15 min. The fixative is then removed, and the cells are permeabilized with PBS containing 0.3% Triton X-100 at room temperature. After washing, the Click reaction working solution is added and incubated at 37 °C for 30 min. The cells are then washed and stained with a prepared Hoechst staining solution for 10 min to stain the cell nuclei. After staining, the staining solution is removed, the cells are washed, and images are captured and saved using a fluorescence microscope.

The subject of data set [8] is thyroid cancer cells TPC-1. The data set can be described thus: Wound healing assay. In kind it is cell-based. The following applies: TPC-1 cells, various durations. On the procedure: TCP-1 cells are seeded into a 6-well cell culture plate and cultured in an incubator at 37 °C with 5% CO2. Once the cells uniformly cover the bottom of the well, a vertical line is drawn in the centre of each well to mark the initial scratch. Fresh medium is replaced and different concentrations of 14f are added. Photographs are taken to document the healing at 0 h, 24 h, 36 h and 48 h post-scratch. Images are processed using ImageJ software. Data analysis is performed using GraphPad Prism software version 8.0.

In another data set the test system is MCF7 cells. The note with it: cited from earlier work.

The values that follow come from article PMC11578424, “Discovery of novel 2,4-diarylaminopyrimidine hydrazone derivatives as potent anti-thyroid cancer agents capable of inhibiting FAK” (Journal of Enzyme Inhibition and Medicinal Chemistry, 2024).

Entries after “also recorded” stand apart in the source; their conditions may differ. Like-named read-outs stand apart in the source and are kept apart here.

T1 sequence (Q05397 whole entry, species assumed): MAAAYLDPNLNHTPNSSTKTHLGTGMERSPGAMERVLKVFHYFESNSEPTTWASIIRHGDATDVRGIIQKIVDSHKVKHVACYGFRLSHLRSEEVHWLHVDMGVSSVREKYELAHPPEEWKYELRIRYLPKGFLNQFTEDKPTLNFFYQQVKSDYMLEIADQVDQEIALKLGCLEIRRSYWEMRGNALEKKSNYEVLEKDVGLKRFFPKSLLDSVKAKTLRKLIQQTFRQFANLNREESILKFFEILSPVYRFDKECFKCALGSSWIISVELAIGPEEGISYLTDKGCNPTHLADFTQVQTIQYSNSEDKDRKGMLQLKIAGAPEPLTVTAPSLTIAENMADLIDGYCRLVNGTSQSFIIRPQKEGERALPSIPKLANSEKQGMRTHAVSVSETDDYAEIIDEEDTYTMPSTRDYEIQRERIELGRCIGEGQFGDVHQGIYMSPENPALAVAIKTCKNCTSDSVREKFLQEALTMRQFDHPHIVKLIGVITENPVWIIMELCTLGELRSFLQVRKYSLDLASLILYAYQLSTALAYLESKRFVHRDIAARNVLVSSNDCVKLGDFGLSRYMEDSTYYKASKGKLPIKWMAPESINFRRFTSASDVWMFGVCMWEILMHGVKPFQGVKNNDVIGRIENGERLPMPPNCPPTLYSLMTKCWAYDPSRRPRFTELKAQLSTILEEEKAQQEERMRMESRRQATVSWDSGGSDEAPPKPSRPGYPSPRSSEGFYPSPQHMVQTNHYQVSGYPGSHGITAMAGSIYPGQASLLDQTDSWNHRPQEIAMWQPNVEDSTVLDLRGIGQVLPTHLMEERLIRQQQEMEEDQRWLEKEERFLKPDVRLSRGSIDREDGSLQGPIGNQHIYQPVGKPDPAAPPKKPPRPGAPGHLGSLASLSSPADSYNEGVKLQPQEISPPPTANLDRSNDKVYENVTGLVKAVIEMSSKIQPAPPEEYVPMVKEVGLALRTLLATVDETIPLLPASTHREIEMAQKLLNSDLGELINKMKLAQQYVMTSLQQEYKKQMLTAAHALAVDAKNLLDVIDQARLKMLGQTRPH
Sequence of ROS1 (P08922 1883-2347 limits assumed): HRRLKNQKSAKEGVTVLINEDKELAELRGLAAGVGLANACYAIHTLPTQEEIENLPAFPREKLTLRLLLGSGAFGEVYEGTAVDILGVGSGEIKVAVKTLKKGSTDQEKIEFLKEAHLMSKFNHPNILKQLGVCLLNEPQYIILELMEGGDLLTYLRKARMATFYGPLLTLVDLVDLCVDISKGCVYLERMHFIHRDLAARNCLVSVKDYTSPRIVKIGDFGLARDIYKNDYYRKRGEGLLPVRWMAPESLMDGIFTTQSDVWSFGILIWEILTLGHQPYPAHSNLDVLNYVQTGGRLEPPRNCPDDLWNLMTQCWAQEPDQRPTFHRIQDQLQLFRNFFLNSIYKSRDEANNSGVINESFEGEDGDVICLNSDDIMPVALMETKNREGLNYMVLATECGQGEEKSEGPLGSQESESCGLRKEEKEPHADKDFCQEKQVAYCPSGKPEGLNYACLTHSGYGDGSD
Sequence of EGFR (P00533 25-1210, species assumed): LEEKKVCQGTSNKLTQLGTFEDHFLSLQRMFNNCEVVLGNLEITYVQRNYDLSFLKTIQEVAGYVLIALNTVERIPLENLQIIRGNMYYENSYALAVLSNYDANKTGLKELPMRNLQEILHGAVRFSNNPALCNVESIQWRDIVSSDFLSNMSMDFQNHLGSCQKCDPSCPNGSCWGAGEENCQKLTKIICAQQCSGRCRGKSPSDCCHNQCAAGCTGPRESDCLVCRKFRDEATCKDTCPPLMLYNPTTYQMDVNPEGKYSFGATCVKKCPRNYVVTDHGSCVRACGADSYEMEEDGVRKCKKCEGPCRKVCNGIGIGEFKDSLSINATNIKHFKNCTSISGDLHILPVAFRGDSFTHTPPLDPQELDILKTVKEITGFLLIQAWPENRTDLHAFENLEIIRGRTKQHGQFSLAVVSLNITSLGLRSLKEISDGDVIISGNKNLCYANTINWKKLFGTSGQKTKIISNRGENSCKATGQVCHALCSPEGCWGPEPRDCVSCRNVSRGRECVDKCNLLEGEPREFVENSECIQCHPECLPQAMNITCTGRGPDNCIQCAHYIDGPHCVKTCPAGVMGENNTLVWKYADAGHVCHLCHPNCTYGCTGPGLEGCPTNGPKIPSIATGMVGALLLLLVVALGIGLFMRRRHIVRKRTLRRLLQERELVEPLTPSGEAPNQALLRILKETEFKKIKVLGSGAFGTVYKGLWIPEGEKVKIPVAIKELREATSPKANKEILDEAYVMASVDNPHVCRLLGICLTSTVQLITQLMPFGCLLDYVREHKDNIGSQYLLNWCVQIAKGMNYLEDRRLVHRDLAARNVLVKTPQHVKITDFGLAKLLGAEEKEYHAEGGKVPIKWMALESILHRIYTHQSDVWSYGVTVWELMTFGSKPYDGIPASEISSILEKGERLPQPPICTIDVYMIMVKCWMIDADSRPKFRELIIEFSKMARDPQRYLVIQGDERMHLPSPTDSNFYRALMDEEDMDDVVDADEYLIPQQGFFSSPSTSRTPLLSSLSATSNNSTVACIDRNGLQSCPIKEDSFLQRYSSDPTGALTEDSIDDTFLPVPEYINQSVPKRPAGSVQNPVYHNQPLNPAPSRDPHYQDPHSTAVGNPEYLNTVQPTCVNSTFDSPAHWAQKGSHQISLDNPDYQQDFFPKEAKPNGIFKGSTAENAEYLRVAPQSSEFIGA

Turning to `CNC(=O)c1ccccc1Nc1nc(N/N=C/c2ccc(F)cc2)ncc1Cl` [14f, (E)-2-((5-chloro-2–(2-(4-fluorobenzylidene)hydrazineyl)pyrimidin-4-yl)amino)-N-methylbenzamide], the melting point is 176.1 to 177.8 °C. For the same molecule, in the data set with TPC-1 cells [1], the cell cycle distribution entry is on record as “pronounced G1 phase arrest”. In addition, the “number of cells that traversed through the membrane” value in data set [2] is on record as “significant reduction”. The IC50 in data set [3] (Homo sapiens, TPC1, 48 h, MTT assay, 48 h, average with SD (n = 3, duplicate), read-out: IC50 (μM), antiproliferative activity against thyroid cancer cells TPC-1) came to 0.113 ± 0.003 µM. In addition, the “times more potent than TAE-226 in TPC-1 cells” value in data set [3] (ratio of IC50 values, TPC-1 cells) is recorded as “approximately 8.57 times”. Further, on FAK [4], the “expression level of FAK” value is given as “did not affect the expression level of FAK; also recorded: no significant changes”. Moreover, in the data set on TPC-1 cells [5], the “concentration from which colony formation is discernibly inhibited” value is at least 100 nmol/L. On FAK [6], the IC50 came to 35 nM. Besides, the IC50 on ALK was 285 nmol/L. Also, the IC50 on EGFR was above 1000 nmol/L. Further, at ROS1, the IC50 worked out at 593 nmol/L. Besides, the “number of cells positive for EdU” value in data set [7] is listed as “significant reduction”. In data set [8], the “wound healing (cell migration)” value was “significant inhibitory effect on cell migration”.

On to `Cn1c2nc(N/N=C/c3cccc(Br)c3)nc(=O)c-2cc2ccccc21` [compound 9], for which, in the data set on MCF7 cells (read-out: IC50, proliferative activity of MCF7 cells), the IC50 was 0.1 nM.

Take `C/C(=N\N=c1/[nH]c2cc(F)c(F)cc2n1C)c1ncccn1` [compound 8]: the IC50 in the data set with MCF7 cells (read-out: IC50, antiproliferative activity against MCF7 cells) is 3.3 nM.
